Source: the NIST ThermoML archive (doi:10.1021/je0342419)
Numbers after ± are expanded uncertainties.

Experiments:
[1] = 300 kPa, Fluid (supercritical or subcritical phases)
[2] = xn = mol fraction of the nth substance listed; conditions: 300 kPa, Fluid (supercritical or subcritical phases)

**Q.** With `O=C=O` [carbon dioxide] as the compound, how does the viscosity ([1]; 500 K) read?
**A.** 0.0236 ± 0.0007 mPa·s

**Q.** And the viscosity ([1]; 800 K)?
**A.** 0.0356 ± 0.0011 mPa·s

**Q.** And the viscosity ([1]; 1100 K)?
**A.** 0.0452 ± 0.0014 mPa·s

**Q.** With `[HH]` [hydrogen] as the compound, how does the viscosity ([1]; 500 K) read?
**A.** 0.0129 ± 0.0004 mPa·s

**Q.** What about the viscosity ([1]; 800 K) of the same compound?
**A.** 0.0179 ± 0.0005 mPa·s

**Q.** What about the viscosity ([1]; 1100 K) of the same compound?
**A.** 0.0226 ± 0.0007 mPa·s

**Q.** What does the source list for `O=C=O` [carbon dioxide] + [HH]?
**A.** viscosity ([2]; 500 K, x2 = 0): 0.0236 ± 0.0007 mPa·s; viscosity ([2]; 800 K, x2 = 0): 0.0356 ± 0.0011 mPa·s; viscosity ([2]; 1100 K, x2 = 0): 0.0452 ± 0.0014 mPa·s

**Q.** Which results are given for `[HH]` [hydrogen] + O=C=O?
**A.** viscosity ([2]; 500 K, x1 = 0.15): 0.0238 ± 0.0007 mPa·s; viscosity ([2]; 500 K, x1 = 0.3): 0.0241 ± 0.0007 mPa·s; viscosity ([2]; 500 K, x1 = 0.5): 0.0236 ± 0.0007 mPa·s; viscosity ([2]; 500 K, x1 = 0.7): 0.0215 ± 0.0006 mPa·s; viscosity ([2]; 500 K, x1 = 0.85): 0.0192 ± 0.0006 mPa·s; viscosity ([2]; 500 K, x1 = 1): 0.0129 ± 0.0004 mPa·s; viscosity ([2]; 800 K, x1 = 0.15): 0.0351 ± 0.0011 mPa·s; viscosity ([2]; 800 K, x1 = 0.3): 0.0346 ± 0.001 mPa·s; viscosity ([2]; 800 K, x1 = 0.5): 0.0336 ± 0.001 mPa·s; viscosity ([2]; 800 K, x1 = 0.7): 0.0303 ± 0.0009 mPa·s; viscosity ([2]; 800 K, x1 = 0.85): 0.0269 ± 0.0008 mPa·s; viscosity ([2]; 800 K, x1 = 1): 0.0179 ± 0.0005 mPa·s; viscosity ([2]; 1100 K, x1 = 0.15): 0.0438 ± 0.0013 mPa·s; viscosity ([2]; 1100 K, x1 = 0.3): 0.0431 ± 0.0013 mPa·s; viscosity ([2]; 1100 K, x1 = 0.5): 0.0422 ± 0.0013 mPa·s; viscosity ([2]; 1100 K, x1 = 0.7): 0.0403 ± 0.0012 mPa·s; viscosity ([2]; 1100 K, x1 = 0.85): 0.0346 ± 0.0011 mPa·s; viscosity ([2]; 1100 K, x1 = 1): 0.0226 ± 0.0007 mPa·s
